Patent publication US5583020A, “Permeability enhancers for negatively charged polynucleotides” (Ribozyme Pharmaceuticals, Inc., priority 1993, dated 1996)
Read-outs that look alike come from different tables or passages of the source.

Assays:
[1] = Diffusion of 32P-ribozyme across a liposome membrane (liposome-associated radioactivity); assay type: in vitro ADME
From the text: The ribozyme was a 36 mer containing five 2'-O-methyl riboses at the 5' end and the 3' end. The ratio of permeability enhancer molecules per mole of phosphate was about 20:1.

[2] = tested on: HeLa cells; experiment: Diffusion of 32P-ribozyme into HeLa cells (cell associated radioactivity); assay type: cell-based; conditions: 20 molecules enhancer per mole of ribozyme phosphate; pH about 4, diluted in DMEM without serum; 1 hour at 37° C., 5% CO2
Protocol: This example illustrates the ability of an enhancer to facilitate the diffusion of a ribozyme into HeLa cells. […] The sample was diluted up to 1 ml with DMEM media containing no serum and added to HeLa cells. A control was run containing ^32 P-ribozyme without enhancer. Cells were incubated for 1 hour at 37° C. in 5% CO2. The cells were washed 3 times with serum free media and solubilized with 0.5 ml of 1% triton.

[3] = not told
[4] = ratio of permeability enhancer per mole of phosphate about 20:1, pH about 4, 25° C., 15 minutes, 32P ribozyme (36 mer)

Row | % Liposome Associated [1] | SMILES | % Liposome Associated [1, 4] | further results
1 | 0.53% | NCCCC(=O)O [Aminobutyric Acid] |  | 
2 |  | NCCCCCC(=O)O [Aminocaproic Acid] | 0.70% | 
3 |  | NCCCCCCCC(=O)O [Aminocaprylic Acid] | 9.54% | degree of membrane association (in words) ([1]; ribozyme, enhancer to phosphate about 20:1): highest degree of membrane association; amount of cell associated radioactivity, enhancer:ribozyme versus ribozyme alone [2]: 3 fold; membrane association on increasing the ratio of enhancer to ribozyme (in words) [3]: concomitant increase in membrane association
4 |  | NCC(=O)O [glycine] | 0.55% | 
5 | 2.54% | Nc1cccc(C(=O)O)c1 [m-Aminobenzoic Acid] |  | 

Row | SMILES | % Liposome Associated [1] | % Liposome Associated [1, 4] | further results
6 | O=C(O)/C=C/c1c[nH]cn1 [Urocanic Acid] | 0.95% |  | 
